From ChEMBL document CHEMBL3832086, “DailyMed|setid=1c5502c7-7731-4d3e-b4fe-7fd44dd5908b | UROXATRAL - alfuzosin hydrochloride tablet, extended release|Physicians Total Care, Inc”

Assays:
[1] = Evaluation of pharmacokinetic parameters for Alfuzosin hydrochloride following multiple oral or intravenous administration of Alfuzosin hydrochloride.; format: ADME, organism-based; set-up: dose 10 mg, route oral; conditions: human, in vivo, dosed compound id 46, dosed compound name ALFUZOSIN HYDROCHLORIDE, regimen Multiple dose, tissue Plasma
[2] = Evaluation of absolute bioavailability of Alfuzosin hydrochloride following oral administration of 10 mg Alfuzosin hydrochloride tablets under fed conditions.; format: ADME, organism-based; conditions: human, in vivo, at 10 mg, dietary status Fed, dosed compound id 46, dosed compound name ALFUZOSIN HYDROCHLORIDE, regimen Single dose, tissue Plasma

In the case of `COc1cc2nc(N(C)CCCNC(=O)C3CCCO3)nc(N)c2cc1OC.Cl` (stereo unspecified) [ALFUZOSIN HYDROCHLORIDE], the Cmax ([1]; po, 10 mg, dietary status Fed) is reported as 13.6 ng/mL, the AUC ([1]; po, 10 mg, dietary status Fed, read-out: AUC(0-24)) is reported as 194 ng·h/mL and the Tmax ([1]; dietary status Fed, dose 10 mg, route oral) is reported as 8 h. The half-life ([1]; dose 10 mg, route oral) was 10 h, the Vd ([1]; gender male, route iv) was 3.2 L/kg and the bioavailability [2] was 49%.
